# From patent EP1080070B1, “ANTIANGIOGENIC DRUG TO TREAT CANCER, ARTHRITIS AND RETINOPATHY” (ABBOTT LABORATORIES, priority 1998, dated 1999)
# Where a name gives a salt, the structure may show the parent alone.
# Tested on: Human Microvascular Endothelial Cells (HMVEC)
# Test: Endothelial cell migration assay (modified Boyden chamber, bFGF-stimulated)
# Format: cell-based
# Details: Homo sapiens, HMVEC; 200 nM test compound; bFGF in upper chamber, 4 hours at 37 °C; percent inhibition of migration compared to a positive control
# Method: The endothelial cell migration assay was performed essentially as described by Polverini, P.J. et al., Methods Enzymol, 198: 440-450 (1991). Briefly, Human Microvascular Endothelial Cells (HMVEC) were starved overnight in DMEM containing 0.1% bovine serum albumin (BSA). Cells were then harvested with trypsin and resuspended in DMEM with 0.1% BSA at a concentration of 1.5 x 10^6 cells/mL. Cells were added to the bottom of a 48-well modified Boyden chamber (Nucleopore Corporation, Cabin John, MD). The chamber was assembled and inverted, and cells were allowed to attach for 2 hours at 37 °C to polycarbonate chemotaxis membranes (5 µm pore size) that had been soaked in 0.1% gelatin overnight and dried. The chamber was then reinverted and basic fibroblast growth factor (bFGF) and test substances were added to the wells of the upper chamber (to a total volume of 50 µL); the apparatus was then incubated for 4 hours at 37 °C. Membranes were recovered, fixed and stained (DiffQuick, Fisher Scientific, Pittsburgh, PA) and the number of cells that had migrated to the upper chamber per 10 high power fields were counted. Background migration to DMEM +0.1% BSA was subtracted and the data reported as the number of cells migrated per 10 high power fields (400X) or when results from multiple experiments were combined, as the percent inhibition of migration compared to a positive control.
row,Structure (SMILES),inhibition at 0.2 µM [%]
1,"COC(=O)c1ccc(NC(=O)[C@@H](CCCCN)NC(=O)OC(C)(C)C)cc1-c1cccc(O)c1 [Example 9, (R)-methyl 4-[[6-amino-2-[[(1,1-dimethylethoxy)carbonyl]amino]-1-oxohexyl]amino]-2-(3-hydroxyphenyl)benzoate]",> 95
2,"COC(=O)c1ccc(NC(=O)[C@H](CCCCN)NC(C)=O)cc1-c1cccc(O)c1 [Example 14, (S)-methyl 4-[[2-(acetylamino)-6-amino-1-oxohexyl]amino]-2-(3-hydroxyphenyl)benzoate]",60
3,"CC(=O)N[C@@H](CCCCN)C(=O)Nc1ccc(C(=O)O)c(-c2cccc(O)c2)c1 [Example 15, (S)-4-[[2-(acetylamino)-6-amino-1-oxohexyl)amino]-2-(3-hydroxyphenyl)benzoic acid]",64
4,"CC(=O)NC(CCCCN)C(=O)Nc1ccc(C(=O)N[C@@H](CC(=O)O)C(N)=O)c(-c2cccc(O)c2)c1 (stereo partly drawn) [Example 16, (S)-N-[4-[[2-(acetylamino)-6-amino-1-oxohexyl]amino]-2-(3-hydroxyphenyl)benzoyl]-L-α-asparagine]",86
5,"CC(C)(C)OC(=O)C[C@H](NC(=O)Cc1ccc(N)cc1)C(=O)OC(C)(C)C [Example 19, N-[(4-aminophenyl)acetyl]-L-aspartic acid bis(1,1-dimethylethyl) ester]",32
6,"CCOC(=O)Cc1ccc(NC(=O)[C@H](CCCCN)NC(=O)OC(C)(C)C)cc1 [Example 25, (S)-ethyl 4-[[6-amino-2-[[(1,1-dimethylethoxy)carbonyl]amino]-1-oxohexyl]amino]benzeneacetate monohydrochloride]",38
7,"COC(=O)c1ccc(NC(=O)[C@H](CCCCN)NC(=O)OC(C)(C)C)cc1-c1ccc(O)cc1 [Example 27, methyl 5-(((2S)-6-amino-2-((tert-butoxycarbonyl)amino)hexanoyl)amino)-4'-hydroxy(1,1'-biphenyl)-2-carboxylate]",28
8,"CC(=O)N[C@@H](CCCCN)C(=O)Nc1ccc(C(=O)N[C@@H](CC(=O)O)C(N)=O)c(-c2ccc(O)cc2)c1 [Example 28, (3S)-3-(((5-(((2S)-2-(acetylamino)-6-aminohexanoyl)amino)-4'-hydroxy(1,1'-biphenyl)-2-yl)carbonyl)amino)-4-amino-4-oxobutanoic acid]",59
9,"CC(C)(C)OC(=O)N[C@@H](CCCCN)C(=O)Nc1ccc(C(=O)O)c(-c2cccc(O)c2)c1 [Example 31, 5-(((2S)-6-amino-2-((tert-butoxycarbonyl)amino)hexanoyl)amino)-3'-hydroxy(1,1'-biphenyl)-2-carboxylic acid]",> 95

# Same assay, conditions: bFGF in upper chamber, 4 hours at 37 °C, percent inhibition of migration compared to a positive control
row,Structure (SMILES),% inhibition at 200 nM test compound [%]
1,"COC(=O)c1ccc(NC(=O)[C@@H](CCCCN)NC(=O)OC(C)(C)C)cc1-c1ccccc1O [Example 10, (R)-methyl 4-[[6-amino-2-[[(1,1-dimethylethoxy)carbonyl]amino]-1-oxohexyl]amino]-2-(2-hydroxypheal)benzoate]",80
2,"COC(=O)c1ccc(NC(=O)[C@H](CCCCNC(=O)OCc2ccccc2)NC(C)=O)cc1-c1cccc(OCc2ccccc2)c1 [Example 12, (S)-methyl 4-[[2-(acetylamino)-6-[[(phenylmethoxy)carbonyl]amino]-1-oxohexyl]amino]2-[(3-(phenylmethoxy)phenyl benzoate]",29
3,CC(=O)NC(CCCCN)C(=O)Nc1ccc(C(=O)N[C@@H](CC(N)=O)C(=O)O)c(-c2ccccc2)c1 (some centres unmarked) [Example 17],>95
4,"CC(=O)NC(CCCCN)C(=O)Nc1ccc(C(=O)N[C@@H](CC(N)=O)C(=O)O)cc1 (stereo partly drawn) [Example 18, (S)-N-[4-[[2-(acelylainino)-6-amino-1-oxohexyl]amino]benzoyl]-L-α-asparagine]",90
5,NC(CCCCNC(=O)OCc1ccccc1)C(=O)Nc1ccc(CC(=O)N[C@@H](CC(=O)O)C(=O)O)cc1 (some centres unmarked) [Example 20],34
